Assay results reported in publication PMC11233587, “Design, synthesis, in vitro, and in silico anti-α-glucosidase assays of N-phenylacetamide-1,2,3-triazole-indole-2-carboxamide derivatives as new anti-diabetic agents” (Scientific Reports, 2024).
Entries after “also recorded” stand apart in the source; their conditions may differ. Where two headings read alike, the source gives them in different places.

How the values were obtained:
[1] = target: yeast α-glucosidase (Saccharomyces cerevisiae, UniProt P53341); assay: biochemical; type: biochemical
yeast α-glucosidase, sequence (P53341 whole entry): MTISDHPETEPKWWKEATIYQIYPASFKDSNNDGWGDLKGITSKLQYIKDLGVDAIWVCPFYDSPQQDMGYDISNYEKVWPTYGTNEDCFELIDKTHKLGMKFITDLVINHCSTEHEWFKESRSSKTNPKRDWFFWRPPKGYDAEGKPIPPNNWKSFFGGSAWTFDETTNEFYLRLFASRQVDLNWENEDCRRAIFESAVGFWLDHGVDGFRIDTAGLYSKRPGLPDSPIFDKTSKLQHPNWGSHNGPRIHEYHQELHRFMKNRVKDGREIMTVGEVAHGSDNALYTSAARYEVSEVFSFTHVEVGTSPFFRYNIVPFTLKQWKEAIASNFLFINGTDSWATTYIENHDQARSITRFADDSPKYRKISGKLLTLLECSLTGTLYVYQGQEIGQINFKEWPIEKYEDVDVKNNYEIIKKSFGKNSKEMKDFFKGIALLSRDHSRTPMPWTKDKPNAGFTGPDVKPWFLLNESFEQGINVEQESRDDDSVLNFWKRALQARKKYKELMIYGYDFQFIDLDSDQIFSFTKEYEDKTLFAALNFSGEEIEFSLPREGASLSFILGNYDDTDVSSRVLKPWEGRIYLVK

[2] = target: T1, α-amylase (pancreatic form) (Homo sapiens, UniProt P04746); assay: α-Amylase inhibition assay; type: biochemical; conditions: read-out: IC50 against α-amylase
T1 sequence (P04746 16-511): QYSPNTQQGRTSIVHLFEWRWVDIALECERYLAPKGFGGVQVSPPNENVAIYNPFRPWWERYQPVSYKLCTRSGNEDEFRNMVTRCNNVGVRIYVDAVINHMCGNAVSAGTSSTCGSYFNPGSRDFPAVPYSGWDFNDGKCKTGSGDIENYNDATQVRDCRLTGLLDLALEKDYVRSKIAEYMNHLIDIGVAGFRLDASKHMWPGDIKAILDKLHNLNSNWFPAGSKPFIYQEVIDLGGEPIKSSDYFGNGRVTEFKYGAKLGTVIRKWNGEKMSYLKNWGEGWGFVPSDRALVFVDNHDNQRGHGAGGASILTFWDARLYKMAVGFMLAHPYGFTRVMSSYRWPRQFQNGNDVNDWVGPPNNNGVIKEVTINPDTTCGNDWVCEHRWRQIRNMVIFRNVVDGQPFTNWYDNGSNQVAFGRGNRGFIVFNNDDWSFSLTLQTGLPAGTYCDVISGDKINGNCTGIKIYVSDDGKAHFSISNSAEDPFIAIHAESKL
Experimental: Inhibitory activity of the most poten new α-glucosidase inhibitors 5k, 5j, and 5f was evaluated against α-amylase (pancreatic form)[15].
(Supplementary Information S1).

[3] = target: α-glucosidase (Saccharomyces cerevisiae, UniProt P53341); assay: Kinetics of α-glucosidase inhibition (Lineweaver–Burk plot and secondary plot); type: biochemical, yeast
α-glucosidase (Saccharomyces cerevisiae, UniProt P53341), sequence (P53341 whole entry): as the sequence (P53341 whole entry) above
Excerpt: As the result, with increasing concentration of compound 5k, Vmax values remained constant while Km values increased.
In vitro assays (inhibition effects and kinetics) of the new compounds 5a–n performed according to pervious reported work[15] (Supplementary Information S1).

[4] = target: α-glucosidase; set-up: method as in doi:10.1007/s00044-020-02603-7; conditions: template compounds A, read-out: IC50 for Compounds A (Fig. 3); cited from earlier work
[5] = read-out: IC50 against α-glucosidase

| melting point [°C] | IC50 [1, 5] [µM] | SMILES | IC50 [1] [µM] | further results |
| --- | --- | --- | --- | --- |
| 205 to 207 | 66 ± 1.8 | Cc1cccc(NC(=O)Cn2cc(CNC(=O)c3cc4ccccc4[nH]3)nn2)c1C [Compound 5d, N-((1-(2-((2,3-dimethylphenyl)amino)-2-oxoethyl)-1H-1,2,3-triazol-4-yl)methyl)-1H-indole-2-carboxamide] |  |  |
| 208 to 210 | 111 ± 1.6 | Cc1cccc(C)c1NC(=O)Cn1cc(CNC(=O)c2cc3ccccc3[nH]2)nn1 [Compound 5e, N-((1-(2-((2,6-dimethylphenyl)amino)-2-oxoethyl)-1H-1,2,3-triazol-4-yl)methyl)-1H-indole-2-carboxamide] |  |  |
| 203 to 205 | 40.2 ± 1.6 | CCc1ccc(NC(=O)Cn2cc(CNC(=O)c3cc4ccccc4[nH]3)nn2)cc1 [Compound 5f, N-((1-(2-((4-ethylphenyl)amino)-2-oxoethyl)-1H-1,2,3-triazol-4-yl)methyl)-1H-indole-2-carboxamide] |  | IC50 [2]: > 150 µM |
| 211 to 213 |  | O=C(Cn1cc(CNC(=O)c2cc3ccccc3[nH]2)nn1)Nc1cccc(Cl)c1 [Compound 5h, N-((1-(2-((3-chlorophenyl)amino)-2-oxoethyl)-1H-1,2,3-triazol-4-yl)methyl)-1H-indole-2-carboxamide] |  |  |
| 233 to 235 | 39.6 ± 1.4 | O=C(Cn1cc(CNC(=O)c2cc3ccccc3[nH]2)nn1)Nc1ccc(Cl)cc1Cl [Compound 5j, N-((1-(2-((2,4-dichlorophenyl)amino)-2-oxoethyl)-1H-1,2,3-triazol-4-yl)methyl)-1H-indole-2-carboxamide] |  | IC50 [2]: > 150 µM |
| 254 to 256 | 110.3 ± 0.6 | O=C(Cn1cc(CNC(=O)c2cc3ccccc3[nH]2)nn1)Nc1cccc([N+](=O)[O-])c1 [Compound 5l, N-((1-(2-((3-nitrophenyl)amino)-2-oxoethyl)-1H-1,2,3-triazol-4-yl)methyl)-1H-indole-2-carboxamide] |  |  |
| 259 to 261 | 78.8 ± 0.3 | O=C(Cn1cc(CNC(=O)c2cc3ccccc3[nH]2)nn1)Nc1ccc([N+](=O)[O-])cc1 [Compound 5m, N-((1-(2-((4-nitrophenyl)amino)-2-oxoethyl)-1H-1,2,3-triazol-4-yl)methyl)-1H-indole-2-carboxamide] |  |  |
| 229 to 231 | 43.5 ± 0.7 | Cc1cc([N+](=O)[O-])ccc1NC(=O)Cn1cc(CNC(=O)c2cc3ccccc3[nH]2)nn1 [Compound 5n, N-((1-(2-((2-methyl-4-nitrophenyl)amino)-2-oxoethyl)-1H-1,2,3-triazol-4-yl)methyl)-1H-indole-2-carboxamide] |  |  |
|  |  | O=C(Cn1cc(CNC(=O)c2c3ccccc3nc3ccccc23)nn1)Nc1ccc(Br)cc1 [Compounds A, R = 4-Br] |  | IC50 [4]: 269 ± 2.8 µM |
|  |  | O=C(Cn1cc(CNC(=O)c2c3ccccc3nc3ccccc23)nn1)Nc1ccc(Cl)cc1 [Compounds A, R = 4-Cl] |  | IC50 [4]: 309 ± 3.4 µM |
|  |  | Cc1ccc(NC(=O)Cn2cc(CNC(=O)c3c4ccccc4nc4ccccc34)nn2)cc1 [Compounds A, R = 4-Me] |  | IC50 [4]: 519 ± 6.7 µM |
|  |  | O=C(Cn1cc(CNC(=O)c2c3ccccc3nc3ccccc23)nn1)Nc1ccc([N+](=O)[O-])cc1 [Compounds A, R = 4-NO2] |  | IC50 [4]: 152 ± 1.7 µM |
|  |  | O=C(Cn1cc(CNC(=O)c2c3ccccc3nc3ccccc23)nn1)Nc1ccccc1 [Compounds A, R = H] |  | IC50 [4]: 171 ± 2.1 µM |

| SMILES | melting point [°C] | IC50 [1, 5] [µM] | IC50 [1] [µM] | further results |
| --- | --- | --- | --- | --- |
| O=C(Cn1cc(CNC(=O)c2cc3ccccc3[nH]2)nn1)Nc1ccccc1 [Compound 5a, N-((1-(2-oxo-2-(phenylamino)ethyl)-1H-1,2,3-triazol-4-yl)methyl)-1H-indole-2-carboxamide] | 216 to 218 |  | 62.9 ± 0.3 |  |
| Cc1cccc(NC(=O)Cn2cc(CNC(=O)c3cc4ccccc4[nH]3)nn2)c1 [Compound 5b, N-((1-(2-oxo-2-(m-tolylamino)ethyl)-1H-1,2,3-triazol-4-yl)methyl)-1H-indole-2-carboxamide] | 224 to 226 |  | 63.6 ± 1.1 |  |
| Cc1ccc(NC(=O)Cn2cc(CNC(=O)c3cc4ccccc4[nH]3)nn2)cc1 [Compound 5c, N-((1-(2-oxo-2-(p-tolylamino)ethyl)-1H-1,2,3-triazol-4-yl)methyl)-1H-indole-2-carboxamide] | 231 to 233 |  | 42.6 ± 0.9 |  |
| COc1ccc(NC(=O)Cn2cc(CNC(=O)c3cc4ccccc4[nH]3)nn2)cc1 [Compound 5g, N-((1-(2-((4-methoxyphenyl)amino)-2-oxoethyl)-1H-1,2,3-triazol-4-yl)methyl)-1H-indole-2-carboxamide] | 209 to 211 |  | 83 ± 0.7 |  |
| O=C(Cn1cc(CNC(=O)c2cc3ccccc3[nH]2)nn1)Nc1ccc(Cl)cc1 [Compound 5i, N-((1-(2-((4-chlorophenyl)amino)-2-oxoethyl)-1H-1,2,3-triazol-4-yl)methyl)-1H-indole-2-carboxamide] | 225 to 227 |  | 83 ± 1.6 |  |
| O=C(Cn1cc(CNC(=O)c2cc3ccccc3[nH]2)nn1)Nc1ccc(Br)cc1 [Compound 5k, N-((1-(2-((4-bromophenyl)amino)-2-oxoethyl)-1H-1,2,3-triazol-4-yl)methyl)-1H-indole-2-carboxamide] | 236 to 238 |  | 26.8 ± 0.5 | improvement in the inhibition effect in comparison to standard inhibitor acarbose ([1]; ratio of α-glucosidase IC50 values, acarbose vs compound): ~28 fold; type of inhibition ([3]; Lineweaver–Burk plot, Vmax constant, Km increased): competitive type of inhibition; also recorded: competitive inhibitor; Ki ([3]; secondary plot of Lineweaver–Burk plots): 26 µM; IC50 [2]: > 150 µM |
